Assay results reported in publication PMC11062894, “Protein-based bandpass filters for controlling cellular signaling with chemical inputs” (Nature Chemical Biology, 2023).
Where “and” joins values, the source holds several entries; their conditions need not be identical. Identical values can stand only once. Entries after “also recorded” stand apart in the source; their conditions may differ. Like-named read-outs stand apart in the source and are kept apart here.

Key:
[1] = target: GEMS receptors with Bcl2:LD3 in HEK293T cells (Homo sapiens, UniProt P10415); test: GEMS SEAP reporter assay, Bcl2:LD3 complex disruption; type: cell-based; set-up: key: SEAP activity in U/L; details: Supp Fig 3a
Protocol: (§1) HEK293T cells were seeded in a 96-well plate 24 h before transfection. The transfection mix in each well consisted of 3 ng of constitutive human CMV promoter driven mammalian STAT3 expression vector (PhCMV-STAT3-pA), 30 ng of STAT3-induced reporter expression (OStat3-PhCMVmin-SEAP-pA) and 50 ng of expression vectors for each GEMS receptor chain (PSV40-IgK-(drughigh receptor)-EpoRm-IL-6RBm-pA and PSV40-IgK-(druglow receptor-GGGGSX3-LD3)-EpoRm-IL-6RBm-pA). For the specific drughigh receptor and druglow receptor used in the different cellular assays, they are indicated as wild type or with mutations. Then, plasmid DNA was mixed with 50 μl opti-MEM (Thermo Fisher) and 600 ng of polyethyleneimine (Polysciences, catalog no. 24765-1). For drug treatment experiments, drugs were added 12 h post-transfection and incubated with cells for 24 h before the SEAP reporter detection assay.
(§2) SEAP activity (U l^−1) in cell culture supernatants was quantified by kinetic measurements at 405 nm (1 minute per measurement for 30 cycles) of absorbance increase due to phosphatase-mediated hydrolysis of para-nitrophenyl phosphate (pNPP). […]

[2] = target: GEMS receptors with BclXL:LD3 in HEK293T cells (Homo sapiens, UniProt Q07817); type: cell-based
Protocol: as §1, with “For drug treatment experiments, drugs were added 12 h post-transfection and incubated with cells for 24 h before the SEAP reporter detection assay.” left out
as §2
production of HEK293T cells. […] SEAP quantifications were performed to measure the protein production and WST-8 was used to test the cell proliferation. For cell proliferation assay, WST-8 was added after 24 hours of drug incubation, and measured its absorbance at 450 nm 4 hours later. […]

[3] = system: GEMS receptors with CBPnavi (BclXL–LD3 and Bcl2), STAT3-driven SEAP in HEK293T cells; test: GEMS SEAP reporter assay, CBPnavi; type: cell-based
Protocol: as §1, with “Then, plasmid DNA was mixed with 50 μl opti-MEM (Thermo Fisher) and 600 ng of polyethyleneimine (Polysciences, catalog no. 24765-1).” left out
Binding affinities of SPR drug competition assays were calculated using three-parameter nonlinear regression in GraphPad Prism (v.8.3.0). Representative data of cell assays are presented as individual values and mean values (bars). n = 3 refers to biological replicates. All IC50 or EC50 values of cell assays reported were calculated using four-parameter nonlinear regression ± s.d. Bandpass features of cutoff concentrations and Bandwidth90% were estimated based on the curve fitted using bell-shaped curve nonlinear regression in GraphPad Prism (v.8.3.0).

LD3 [4] = test: SPR drug sensitivity of drug receptor variants (5 µM analyte mixed with 10 µM inhibitor, LD3 immobilized chip); type: binding; details: for drug resistance to venetoclax (binding response to LD3): 5 µM Bcl2 or variant + 10 µM Venetoclax
Protocol: Drug IC50 values for disrupting heterodimers were measured on a Biacore 8K device. A 5 µM portion of analyte was mixed with 10 µM of BclXL or Bcl2 inhibitors according to the analyte. The mixtures of analyte and drug were injected onto the LD3 immobilized channel. […]
(§3) Bcl2high-v(2,4,5) measured by SPR. 5 μM of Bcl2 or indicated variants were mixed with 10 μM of […]

LD3 [5] = test: SPR assay for protein–protein binding affinities (drug receptor variants over immobilized LD3); set-up: unit not given here; details: Supp Fig 6a
Protocol: SPR measurements were performed on a Biacore 8K device (GE Healthcare). The mutual designed binder (LD3) was immobilized on a CM5 chip (GE Life Science) as a ligand with the concentration at 5 μg ml^−1 for 120 s contact time in pH 4.5 sodium acetate solutions. Serial dilutions of the analytes (BclXL or Bcl2 and their variants) in HBS-EP buffer (10 mM HEPES, 150 mM NaCl, 3 mM EDTA and 0.005% surfactant P20; GE Life Science) were flowed over the immobilized chips. After each injection cycle, surface regeneration was performed using 10 mM NaOH (pH 11.95). Affinities (Kd) were obtained using a steady binding model of the equilibrium model with Biacore 8K evaluation software. […]
Dissociation constant measurement of BclXLhigh-v(1-3) and LD3. Equilibrium curves are fitted using
BclXLhigh-v1 (purple), BclXLhigh-v2 (blue), […]
Supplementary Figure 6: Binding affinities and drug resistances of Bcl2high-v(2,4,5) assessed by
a) Measurement of dissociation constants for Bcl2high-v(2,4,5) and LD3 interactions. Equilibrium curves
as §3

[6] = system: GEMS receptors with CBPvene (Bcl2–LD3 and Bcl2high variants), STAT3-driven SEAP in HEK293T cells; test: GEMS SEAP reporter assay, CBPvene (Bcl2high, LD3-v and Bcl2-v variants) with venetoclax; type: cell-based; details: Supp Fig 5c; for behavior of Bcl2high variants screened in CBP constructs: venetoclax exceeding 100 nM

Sequence of GEMS receptors with Bcl2:LD3 in HEK293T cells (P10415 whole entry): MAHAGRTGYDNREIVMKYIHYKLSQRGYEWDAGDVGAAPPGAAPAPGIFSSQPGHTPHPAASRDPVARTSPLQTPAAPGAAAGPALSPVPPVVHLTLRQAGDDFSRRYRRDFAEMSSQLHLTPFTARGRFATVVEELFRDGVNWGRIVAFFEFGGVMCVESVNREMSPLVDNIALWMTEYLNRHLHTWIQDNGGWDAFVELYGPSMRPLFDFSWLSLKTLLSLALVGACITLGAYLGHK
Sequence of GEMS receptors with BclXL:LD3 in HEK293T cells (Q07817 whole entry): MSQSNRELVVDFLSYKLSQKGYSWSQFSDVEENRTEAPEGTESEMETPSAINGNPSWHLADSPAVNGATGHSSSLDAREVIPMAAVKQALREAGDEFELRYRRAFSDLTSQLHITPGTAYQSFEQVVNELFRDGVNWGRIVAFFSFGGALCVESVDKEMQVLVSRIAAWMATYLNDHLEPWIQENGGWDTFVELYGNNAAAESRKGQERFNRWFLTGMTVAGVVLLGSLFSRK

Compound	drug resistance to venetoclax (binding response to LD3) (LD3 [4])	SPR equilibrium binding response to LD3 (LD3 [5]; head: Venetoclax (nM) 1)	SEAP, screening of Bcl2high variants (raw) ([6]; Venetoclax 0)	SEAP, screening of Bcl2high variants, Normalized ([6]; Venetoclax 0)	SEAP, screening of Bcl2high variants (raw) ([6]; Venetoclax 0.0001)	SEAP, screening of Bcl2high variants, Normalized ([6]; Venetoclax 0.0001)	SEAP, screening of Bcl2high variants (raw) ([6]; Venetoclax 0.001)	SEAP, screening of Bcl2high variants, Normalized ([6]; Venetoclax 0.001)	SEAP, screening of Bcl2high variants (raw) ([6]; Venetoclax 0.01)	SEAP, screening of Bcl2high variants, Normalized ([6]; Venetoclax 0.01)	SEAP, screening of Bcl2high variants (raw) ([6]; Venetoclax 0.1)	SEAP, screening of Bcl2high variants, Normalized ([6]; Venetoclax 0.1)	SEAP, screening of Bcl2high variants (raw) ([6]; Venetoclax 1)	SEAP, screening of Bcl2high variants, Normalized ([6]; Venetoclax 1)	SEAP, screening of Bcl2high variants (raw) ([6]; Venetoclax 10)	SEAP, screening of Bcl2high variants, Normalized ([6]; Venetoclax 10)	SEAP, screening of Bcl2high variants (raw) ([6]; Venetoclax 100)	SEAP, screening of Bcl2high variants, Normalized ([6]; Venetoclax 100)	SEAP, screening of Bcl2high variants (raw) ([6]; Venetoclax 1000)	SEAP, screening of Bcl2high variants, Normalized ([6]; Venetoclax 1000)	also measured
CC1(C)CCC(c2ccc(Cl)cc2)=C(CN2CCN(c3ccc(C(=O)NS(=O)(=O)c4ccc(N[C@H](CCN5CCOCC5)CSc5ccccc5)c(S(=O)(=O)C(F)(F)F)c4)cc3)CC2)C1 [Navitoclax]	–	–	–	–	–	–	–	–	–	–	–	–	–	–	–	–	–	–	–	–	dose response (SEAP) ([1]; Navitoclax 1 nM): 217.89 and 244.414 and 201.569; dose response (SEAP) ([1]; Navitoclax 3.18 nM): 251.97 and 247.153 and 223.02; dose response (SEAP) ([1]; Navitoclax 10 nM): 225.391 and 249.837 and 220.973; dose response (SEAP) ([1]; Navitoclax 31.8 nM): 203.543 and 185.176 and 172.987; dose response (SEAP) ([1]; Navitoclax 100 nM): 207.157 and 228.932 and 148.919; dose response (SEAP) ([1]; Navitoclax 318 nM): 189.257 and 207.554 and 159.852; dose response (SEAP) ([1]; Navitoclax 1000 nM): 160.635 and 174.477 and 98.5023; dose response (SEAP) ([1]; Navitoclax 3180 nM): 138.28 and 140.892 and 97.3043; dose response (SEAP) ([1]; Navitoclax 10000 nM): 109.056 and 131.507 and 65.8832; more potent activity to BclXL than to Bcl2 [2]: approximately 4.4 fold; Dip (bell-shaped fit, best-fit value) ([3]; CBPnavi, Fig 3c): 146.8; Plateau1 (bell-shaped fit, best-fit value) ([3]; CBPnavi, Fig 3c): 13.3; Plateau2 (bell-shaped fit, best-fit value) ([3]; CBPnavi, Fig 3c): 20.77; nH1 (bell-shaped fit, best-fit value) ([3]; CBPnavi, Fig 3c): -2.607; nH2 (bell-shaped fit, best-fit value) ([3]; CBPnavi, Fig 3c): -2.347; EC50 ([3]; Homo sapiens, HEK-293T, read-out: EC50_1 (bell-shaped fit, best-fit value)): 66.5 nM; EC50 ([3]; Homo sapiens, HEK-293T, read-out: EC50_2 (bell-shaped fit, best-fit value)): 2850 nM; EC50 ([3]; Homo sapiens, HEK-293T, read-out: EC50 of the ON phase): 65 nM; IC50 ([3]; Homo sapiens, HEK-293T, read-out: IC50 of the OFF phase): 2820 nM
Bcl2: wild-type Bcl2, druglow receptor	completely inhibited	–	–	–	–	–	–	–	–	–	–	–	–	–	–	–	–	–	–	–	–
Bcl2high-v4: Bcl2 variant (G101V)	intermediate binding responses; also recorded: more resistant than Bcl2high-v2	2.1472	6.603	2.711	4.145	0	8.202	4.476	7.174	3.342	7.666	3.884	5.264	1.235	24.5053	22.4596	94.7979	100	68.7379	71.253	SPR equilibrium binding response to LD3 (LD3 [5]; head: Venetoclax (nM) 3.9): 10.112; SPR equilibrium binding response to LD3 (LD3 [5]; head: Venetoclax (nM) 15.6): 33.8883; SPR equilibrium binding response to LD3 (LD3 [5]; head: Venetoclax (nM) 62.5): 70.0059; behavior of Bcl2high variants screened in CBP constructs [6]: sharp decrease
Bcl2high-v5: Bcl2 variant (D103Y)	intermediate binding responses	0.849	2.765	3.49	2.523	2.743	3.266	5.042	2.791	3.572	1.758	0.3721	1.638	0	7.093	16.9022	33.9111	100	29.4352	86.1311	SPR equilibrium binding response to LD3 (LD3 [5]; head: Venetoclax (nM) 3.9): 3.873; SPR equilibrium binding response to LD3 (LD3 [5]; head: Venetoclax (nM) 15.6): 14.2982; SPR equilibrium binding response to LD3 (LD3 [5]; head: Venetoclax (nM) 62.5): 37.6477; behavior of Bcl2high variants screened in CBP constructs [6]: sharp decrease
Bcl2high-v7: Bcl2 variant (D103E)	–	–	6.691	0	7.426	0.7213	7.62	0.9112	12.5658	5.763	10.093	3.337	14.5573	7.717	26.197	19.1352	97.9682	89.5427	108.628	100	–
BclXL: wild-type BclXL, druglow receptor	–	–	–	–	–	–	–	–	–	–	–	–	–	–	–	–	–	–	–	–	drug resistance to A-1155463 (binding response to LD3) (LD3 [4]; 5 µM BclXL or variant + 10 µM A-1155463): completely inhibited
